Measured values from paper PMC13120037 (2026).

Key:
[1] = system: Seq78-2 (DNA, aptamer) GGGAGCTCAGAATAAACGCTCAAGCACGCGTCGTCTTCCTGCGCTTCTCCCCGCATCATTCGACATGAGGCCCGGATC; test: AuNP colorimetric assay (A520); conditions: Na+ (NaCl 40 mM final, added after binding); room temperature, 30 min; 1 μg/mL α-amanitin, aptamer 0-1600 nM; 35 or 78 nt form not stated
[2] = system: Seq78-4 (DNA, aptamer) GGGAGCTCAGAATAAACGCTCAATTTTCGCTGGCTAGTCAGTTTTCTCGTCGTGTGATTTCGACATGAGGCCCGGATC; test: AuNP colorimetric assay (A520); conditions: Na+ (NaCl 40 mM final, added after binding); room temperature, 30 min; 1 μg/mL α-amanitin, aptamer 0-1600 nM; 35 or 78 nt form not stated
[3] = system: Seq78-7 (DNA, aptamer) GGGAGCTCAGAATAAACGCTCAAGTTCCTCTATTCTAGTTATGCGCTACGTACGCTAGTTCGACATGAGGCCCGGATC; test: AuNP colorimetric assay (A520); conditions: Na+ (NaCl 40 mM final, added after binding); room temperature, 30 min; 1 μg/mL α-amanitin, aptamer 0-1600 nM; 35 or 78 nt form not stated
[4] = system: Seq78-9 (DNA, aptamer) GGGAGCTCAGAATAAACGCTCAACTTTTCTGGTTACTCTCGTTTGTTTGATGTTACTTTTCGACATGAGGCCCGGATC; test: AuNP colorimetric assay (A520); conditions: Na+ (NaCl 40 mM final, added after binding); room temperature, 30 min; 1 μg/mL α-amanitin, aptamer 0-1600 nM; 35 or 78 nt form not stated
[5] = system: Seq78-2 (DNA, aptamer) GGGAGCTCAGAATAAACGCTCAAGCACGCGTCGTCTTCCTGCGCTTCTCCCCGCATCATTCGACATGAGGCCCGGATC; test: magnetic-bead strand release, supernatant absorbance (Nanodrop); conditions: 25 °C, 60 min; 20 μM α-amanitin; capture strand Capture-am-biotin displaced; Langmuir single-point calculation, not fitted
[6] = system: Seq78-4 (DNA, aptamer) GGGAGCTCAGAATAAACGCTCAATTTTCGCTGGCTAGTCAGTTTTCTCGTCGTGTGATTTCGACATGAGGCCCGGATC; test: as above; conditions: 25 °C, 60 min; 20 μM α-amanitin; capture strand Capture-am-biotin displaced; Langmuir single-point calculation, not fitted
[7] = system: Seq78-7 (DNA, aptamer) GGGAGCTCAGAATAAACGCTCAAGTTCCTCTATTCTAGTTATGCGCTACGTACGCTAGTTCGACATGAGGCCCGGATC; test: as above; conditions: 25 °C, 60 min; 20 μM α-amanitin; capture strand Capture-am-biotin displaced; Langmuir single-point calculation, not fitted
[8] = system: Seq78-9 (DNA, aptamer) GGGAGCTCAGAATAAACGCTCAACTTTTCTGGTTACTCTCGTTTGTTTGATGTTACTTTTCGACATGAGGCCCGGATC; test: as above; conditions: 25 °C, 60 min; 20 μM α-amanitin; capture strand Capture-am-biotin displaced; Langmuir single-point calculation, not fitted

CC[C@H](C)[C@@H]1NC(=O)CNC(=O)[C@@H]2Cc3c([nH]c4cc(O)ccc34)[S@](=O)C[C@H](NC(=O)CNC1=O)C(=O)N[C@@H](CC(N)=O)C(=O)N1C[C@H](O)C[C@H]1C(=O)N[C@@H]([C@@H](C)[C@@H](O)CO)C(=O)N2
Kd [1]: 820 ± 5 nM | Kd [2]: 60 ± 3 nM | Kd [3]: 216 ± 3 nM | Kd [4]: 881 ± 6 nM | Kd [5]: 850 ± 45 nM | Kd [6]: 57.80 ± 1.001 nM | Kd [7]: 256 ± 5 nM | Kd [8]: 910 ± 31 nM
